In PubChem BioAssay (NCI):
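Compound exposure: 48 hours, 5 concentrations, 96-well plates. At the GI50, growth is halved. TGI denotes the concentration required for complete inhibition of growth.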

Tests used:
Assay in all cases: NCI-60 cell line screen, 48 h
[1] = tested on: SNB-75 CNS
[2] = tested on: RPMI-8226 leukemia
[3] = tested on: MOLT-4 leukemia
[4] = tested on: HOP-92 NSCLC
[5] = tested on: IGROV1 ovarian
[6] = tested on: SN12C renal
[7] = tested on: MDA-MB-231 breast
[8] = tested on: M14 melanoma
[9] = tested on: RXF 393 renal
[10] = tested on: CAKI-1 renal

Row | SMILES | TGI [1] [µM] | TGI [2] [µM] | TGI [3] [µM] | TGI [4] [µM] | TGI [5] [µM] | TGI [6] [µM] | TGI [7] [µM] | TGI [8] [µM] | TGI [9] [µM] | TGI [10] [µM] | GI50 [1] [µM] | GI50 [2] [µM] | GI50 [3] [µM] | GI50 [4] [µM] | GI50 [5] [µM] | GI50 [6] [µM] | GI50 [7] [µM] | GI50 [8] [µM] | GI50 [9] [µM] | GI50 [10] [µM]
1 | O=c1c2c([nH]c3nccn13)CCC2 | > 10 | > 10 | > 10 | > 10 | > 10 | > 10 | > 10 | > 10 | > 10 | > 10 |  |  |  |  |  |  |  |  |  | 
2 | c1ccc(-c2nn3c(c2-c2ccnc4cc(OCCN5CCOCC5)ccc24)CCC3)nc1 | > 100 | > 100 | > 100 | > 100 | > 100 | > 100 | > 100 | > 100 | > 100 | > 100 | 59 | 53.7 | 51.8 | > 68.9 | 29.6 | 50.4 | > 100 | 70.8 | > 100 | 45.6
3 | CO/N=C(\COc1ccc2c(=O)c3ccccc3oc2c1)c1ccccc1 | > 100 | > 100 | > 100 | 64 | > 100 | > 100 | 57.1 | > 100 | > 100 | 4.89 | 68.8 | > 100 | > 100 | 25.7 | 39.6 | 35.1 | 25.2 | 73.5 | 39 | 1.19
4 | O=[N+]([O-])/C=C/c1c(Cl)cccc1Cl | 32.4 | 0.514 |  | 12.2 | 10.3 | 5.65 | 4.26 | 4.87 | > 21.8 | 7.86 |  |  |  |  |  |  |  |  |  | 
5 | OCCCCC#Cc1ccccc1C#Cc1ccc(O)cc1 | 29.3 | 48.9 | 38.9 | 36.2 | 22.8 | 34.8 | 21.4 | 36 | 22.4 | 30.3 | 13.6 | 19.1 | 9.96 | 17.4 | 9.56 | 18.8 | 7.55 | 17.8 | 0.622 | 15.7
6 | COc1ccc(-c2c(C)c(C(=O)O)nc(-c3ccc4c(O)c(OC)c5c(c4n3)=NC(C)(C)N=5)c2N)c(O)c1OC | 11.4 | 86.6 | 29.7 | > 100 | > 100 | 41.7 | > 100 | 74.6 | 51.7 |  |  |  |  |  |  |  |  |  |  | 
7 | O=[N+]([O-])c1cc[n+]([O-])c2ccccc12 | 0.465 | 0.358 | 6.35 | 0.758 | 1.03 | 1.13 | 1.48 | 0.521 | 0.619 | 0.937 | 0.176 | 0.0439 | 1.9 | 0.13 | 0.259 | 0.244 | 0.282 | 0.182 | 0.211 | 0.307
8 | COc1ccc(/C=C(/c2ccccc2)[N+](=O)[O-])c(OC)c1 | 1.84 | 1.64 | 6.77 | 2.76 | 2.95 | 3 | 4.16 | 3.51 | 3.03 | 2.64 | 0.363 | 0.372 | 2.14 | 1.26 | 1.47 | 1.47 | 2 | 1.48 | 1.53 | 1.23
9 | Cc1ccc(S(=O)(=O)Oc2ccc3c4c(c(=O)oc3c2)CCCCCC4)cc1 | > 100 | > 100 | > 100 | > 100 | > 100 | > 100 | > 100 | > 100 | > 100 |  | > 100 | 2.33 | 9.57 | 1.34 | > 100 | > 100 | > 100 | > 100 | > 100 | 
10 | CCC(=O)N1C/C(=C/c2ccc(Cl)cc2)C(=O)/C(=C/c2ccc(Cl)cc2)C1 | 3.1 | 0.911 | 5.87 | 4.18 | 2.55 | 2.05 | 2.9 | 2.6 | 2.08 | 7.85 | 1.37 | 0.101 | 0.974 | 1.66 | 0.998 | 0.711 | 1.05 | 0.992 | 0.723 | 2.25
11 | Fc1ccc(-c2ncn(C3CCNCC3)c2-c2ccnc(Oc3ccc4c(c3)OCO4)n2)cc1 | > 25 | > 25 | > 25 | > 25 | > 25 | > 25 | > 25 | > 25 | > 25 | > 25 | > 16.1 | > 25 | > 25 | 5.21 | 13.9 | 16.7 | 10.5 | 10.4 | 7.88 | > 20.9
12 | CN(C)C(=O)Nc1nc2cc(Cl)c(Cl)cc2[nH]1 | > 35.2 | > 100 | > 70.4 | > 100 | > 100 | > 100 | > 100 |  | > 28.7 | > 23.5 | 3.08 | 1.37 | 1.01 | 16.1 | 1.15 | 1.36 | 3.42 | 0.603 | 1.63 | 0.525
13 | O=C(NCCN1CCOCC1)OCc1nc2nc(Cl)nc(N3CCOCC3)c2[nH]1 | > 100 | > 100 | > 100 | > 100 | > 100 | > 100 | > 100 |  | 6.78 | > 100 | 4.12 | 0.701 | 3.32 | 1.41 | 2.7 | 2.16 | 2.91 |  | 1.87 | 3.07
14 | COc1ccc2c(c1)nc(NNC(=O)c1cnccn1)c1cccn12 | 3.06 | 4.51 | > 85.5 | 3.22 | 2.22 | 3.37 | 3.39 | 3.78 | 2.47 | 4.81 | 0.458 | 0.435 | 0.159 | 0.952 | 0.107 | 0.408 | 0.682 | 0.275 | 0.689 | 0.659
15 | COc1ccc2c(c1)[n+](=O)c(C(=O)c1cccs1)c(C(F)(F)F)n2[O-] | > 50 | > 50 | > 50 | 49.5 |  | 10.4 | 25.4 | > 50 | > 50 | 11.7 | 9.11 | 3.41 | 24.9 | 7.91 |  | 2.18 | 7.38 | 10.9 | > 50 | 2.87
16 | C/C(=C\c1ccn(-c2ccccc2N)n1)[C@@H]1C[C@@H]2O[C@]2(C)CCC[C@H](C)[C@H](O)[C@@H](C)C(=O)C(C)(C)[C@@H](O)CC(=O)O1 | 0.186 | > 24.1 | > 42.2 | > 50 | > 50 | > 50 | > 50 |  | 0.604 | > 50 | 0.00907 | 0.0188 | 0.0341 | 0.146 | 0.247 | 0.145 | 0.247 |  | 0.0526 | 0.242
17 | N#Cc1nc(-c2ccc(F)cc2)oc1S(=O)(=O)N1CCCCC1 | 25 |  | 8.21 | 3.37 | 3.5 | 3.11 | 3.54 | 3.87 | 3.38 | 3.03 | 11.8 |  | 2.22 | 1.76 | 1.75 | 1.65 | 1.86 | 1.77 | 1.91 | 1.66
18 | CCCCCCCCCCCC1=NC(C)(C)CN1C(C)(C)CO | 7.12 | 5.83 | 8.66 | 7.49 |  | 17.5 | 4.48 | 3.4 | 4.48 | 4.37 | 2.3 | 2.49 | 2.79 | 2.31 |  | 4.31 | 2.1 | 1.79 | 2.26 | 1.73
19 | C=C1C(=O)O[C@H]2[C@H]1CC/C(COC(=O)CCCCCC(=O)OC/C1=C/CC[C@@]3(C)O[C@H]3[C@H]3OC(=O)C(=C)[C@@H]3CC1)=C\CC[C@@]1(C)O[C@@H]21 | 29.6 | 5.51 | 4.1 | 4.12 | 9.32 | 11.5 | 3.62 | 8.29 | 2.41 |  | 3.05 | 1.69 | 0.633 | 1.7 | 2.51 | 2.86 | 1.68 | 2.68 | 1.1 | 
20 | CNC(=O)NCC1OC(n2cnc3c(NC(=O)Nc4ccccc4)ncnc32)C(O[Si](C)(C)C(C)(C)C)C1O[Si](C)(C)C(C)(C)C (stereo unspecified) | 34.1 | > 100 |  | 5.16 | 7.76 | 3.38 | 6.12 | 18.5 | 4.01 | 7.93 | 2.43 | 3.27 |  | 1.56 | 2.74 | 1.81 | 2.61 | 4.33 | 2.14 | 2.7
